Measured values as given in patent US9018383B2, “Acylamino-substituted cyclic carboxylic acid derivatives and their use as pharmaceuticals” (Sanofi, priority 2009, dated 2015).

Biological target: human Edg-2 receptor (Homo sapiens, UniProt Q92633)
Experiment: Determination of Edg-2 receptor inhibition by FLIPR measurements (LPA-mediated calcium liberation)
Format: cell-based
Conditions: CHO cells overexpressing human Edg-2 receptor, LPA 100 nM, fluo-4 calcium fluorescence; read-out: Inhibitory concentrations IC50 for inhibition of the Edg-2 receptor
Method in brief: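 IC50 was derived from % inhibition of the baseline-corrected peak fluo-4 signal relative to DMSO, measured in triplicate. Compound was added ~5 min before 100 nM LPA (18:1) to human Edg-2–expressing CHO cells in pH 7.5 HBSS buffer with probenecid and HEPES, and fluorescence was monitored ~3 min.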

Chain of human Edg-2 receptor (Q92633 whole entry): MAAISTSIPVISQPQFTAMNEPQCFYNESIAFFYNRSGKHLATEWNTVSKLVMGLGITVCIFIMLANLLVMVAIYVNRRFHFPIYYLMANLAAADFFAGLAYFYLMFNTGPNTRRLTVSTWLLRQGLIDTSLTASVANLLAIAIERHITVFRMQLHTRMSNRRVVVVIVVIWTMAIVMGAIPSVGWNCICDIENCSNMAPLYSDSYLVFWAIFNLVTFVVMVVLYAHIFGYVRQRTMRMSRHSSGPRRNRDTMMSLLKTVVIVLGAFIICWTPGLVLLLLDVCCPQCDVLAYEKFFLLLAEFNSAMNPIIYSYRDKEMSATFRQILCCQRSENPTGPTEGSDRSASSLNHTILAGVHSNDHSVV

SMILES | IC50 [µM]
CC[C@H]1CC[C@@](NC(=O)c2ccc(C=O)c(-c3cccc(C(F)(F)F)c3)c2)(C(=O)O)CC1 [Example 429, trans-4-Ethyl-1-[(6-formyl-3′-trifluoromethyl-biphenyl-3-carbonyl)-amino]-cyclohexanecarboxylic acid] | 0.1 to 1
COc1ccc(C(=O)NC2(C(=O)O)CCOCC2)cc1OCCc1cccc(C)c1 [Example 37] | 1 to 30
COc1ccc(C(=O)NC2(C(=O)O)CCCC2OC)cc1OCCc1cccc(C)c1 (centres unmarked) [Example 68, 2-Methoxy-1-[4-methoxy-3-(2-m-tolyl-ethoxy)-benzoylamino]-cyclopentanecarboxylic acid] | < 0.1
COc1ccc(C(=O)NC2(C(=O)O)CCCCCCC2)cc1OCCc1cc(C)ccc1F [Example 24, 1-{3-[2-(2-Fluoro-5-methyl-phenyl)-ethoxy]-4-methoxy-benzoylamino}-cyclooctanecarboxylic acid] | 0.1 to 1
COc1ccc(C(=O)NC2(C(=O)O)CCCCCC2)cc1OCCc1cc(Cl)ccc1F [Example 3, 1-{3-[2-(5-Chloro-2-fluoro-phenyl)-ethoxy]-4-methoxy-benzoylamino}-cycloheptanecarboxylic acid] | < 0.1
COc1ncc(C(=O)NC2(C(=O)O)CCCCCC2)cc1-c1cccc(C(F)(F)F)c1 [Example 100] | < 0.1
CC[C@H]1CC[C@](NC(=O)c2cc(OCCc3cccc(C)c3)c3c(c2)OC(F)(F)O3)(C(=O)O)CC1 [Example 456, Cis-1-{[2,2-Difluoro-7-(2-m-tolyl-ethoxy)-benzo[1,3]dioxole-5-carbonyl]-amino}-4-ethyl-cyclohexanecarboxylic acid] | < 0.1
CC[C@H]1CC[C@](NC(=O)c2ccc(CCCO)c(-c3cccc(C(F)(F)F)c3)c2)(C(=O)O)CC1 [Example 433, cis-4-Ethyl-1-{[6-(3-hydroxy-propyl)-3′-trifluoromethyl-biphenyl-3-carbonyl]-amino}-cyclohexanecarboxylic acid] | < 0.1
COc1ncc(C(=O)N[C@]2(C(=O)O)CC[C@@H](C)CC2)cc1OCCc1cc(Cl)ccc1F [Example 81, trans-1-({5-[2-(5-Chloro-2-fluoro-phenyl)-ethoxy]-6-methoxy-pyridine-3-carbonyl}-amino)-4-methyl-cyclohexanecarboxylic acid] | < 0.1
Cc1cccc(CCOc2cc(C(=O)NC3(C(=O)O)CCCCCC3)ccc2Br)c1 [Example 65, 1-[4-Bromo-3-(2-m-tolyl-ethoxy)-benzoylamino]-cycloheptanecarboxylic acid] | < 0.1
COc1ccc(C(=O)NC2(C(=O)O)CCCCCC2)cc1-c1cccc(NS(=O)(=O)N(C)C)c1 [Example 103] | 0.1 to 1
CC[C@H]1CC[C@](C(=O)O)(N(C)C(=O)c2ccc(OC)c(OCCc3cccc(C)c3)c2)CC1 [Example 441, trans-4-Ethyl-1-{[4-methoxy-3-(2-m-tolyl-ethoxy)-benzoyl]-methyl-amino}-cyclohexanecarboxylic acid] | 1 to 30
CC[C@H]1CC[C@](NC(=O)c2cc(F)c(OC)c(-c3cnc(OC)c(Cl)c3)c2)(C(=O)O)CC1 [Example 450, 1-[3-(5-Chloro-6-methoxy-pyridin-3-yl)-5-fluoro-4-methoxy-benzoylamino]-4-ethyl-cyclohexanecarboxylic acid] | < 0.1
CC[C@H]1CC[C@](NC(=O)c2cnc(OC)c(-c3cc(F)c(F)c(F)c3)c2)(C(=O)O)CC1 [Example 301] | < 0.1
COc1ccc(C(=O)NC2(C(=O)O)CCCC2C)cc1OCCc1cccc(C)c1 (centres unmarked) [Example 49] | 1 to 30
CC[C@H]1CC[C@@](NC(=O)c2cnc(OC)c(OCCc3cccc(OC(F)(F)F)c3)c2)(C(=O)O)CC1 [Example 398, trans-4-Ethyl-1-({6-methoxy-5-[2-(3-trifluoromethoxy-phenyl)-ethoxy]-pyridine-3-carbonyl}-amino)-cyclohexanecarboxylic acid] | < 0.1
COc1c(F)cc(C(=O)NC2(C(=O)O)CCCCCC2)cc1OCCc1cccc(CCO)c1 [Example 393, 1-(3-Fluoro-5-{2-[3-(2-hydroxy-ethyl)-phenyl]-ethoxy}-4-methoxy-benzoylamino)-cycloheptanecarboxylic acid] | < 0.1
COc1ncc(C(=O)NC2(C(=O)O)CCCCCC2)cc1-c1cc(Cl)cc(C(F)(F)F)c1 [Example 99] | < 0.1
COc1ccc(C(=O)NC2(C(=O)O)CCCCCC2)cc1OCCc1cc(OC(F)(F)F)ccc1F [Example 5] | < 0.1
COc1ccc(C(=O)N[C@@]2(C(=O)O)C[C@@H]3CC[C@H]2O3)cc1OCCc1cccc(C)c1 (racemic) [Example 126, (1R,2S,4S)-2-[4-Methoxy-3-(2-m-tolyl-ethoxy)-benzoylamino]-7-oxa-bicyclo[2.2.1]heptane-2-carboxylic acid and (1S,2R,4R)-2-[4-methoxy-3-(2-m-tolyl-ethoxy)-benzoylamino]-7-oxa-bicyclo[2.2.1]heptane-2-carboxylic acid] | < 0.1
COc1ccc(C(=O)NC2(C(=O)O)CCC3(CC3)CC2)cc1OCCc1cccc(C)c1 [Example 57, 6-[4-Methoxy-3-(2-m-tolyl-ethoxy)-benzoylamino]-spiro[2.5]octane-6-carboxylic acid] | < 0.1

SMILES | IC50 [µM]
CC[C@H]1CC[C@@](NC(=O)c2ccc(OCCO)c(-c3cccc(C(F)(F)F)c3)c2)(C(=O)O)CC1 [Example 386, trans-4-Ethyl-1-{[6-(2-hydroxy-ethoxy)-3′-trifluoromethyl-biphenyl-3-carbonyl]-amino}-cyclohexanecarboxylic acid] | < 0.1
CC[C@H]1CC[C@](NC(=O)c2ccc(C(F)(F)F)c(-c3ccc(OC)c(Cl)c3)c2)(C(=O)O)CC1 [Example 125, cis-1-[(3′-Chloro-4′-methoxy-6-trifluoromethyl-biphenyl-3-carbonyl)-amino]-4-ethyl-cyclohexanecarboxylic acid] | < 0.1
COc1ccc(C(=O)NC2(C(=O)O)CCC(C)C2)cc1OCCc1cccc(C)c1 (centres unmarked) [Example 373] | 0.1 to 1
COc1ncc(C(=O)NC2(C(=O)O)CCCCCC2)cc1-c1cccc(C(C)C)c1 [Example 95] | 0.1 to 1
COc1ccc(-c2cc(C(=O)N[C@]3(C(=O)O)CC[C@H](C(F)(F)F)CC3)cc(F)c2OC)cc1Cl [Example 448, Cis-1-[(3′-Chloro-5-fluoro-6,4′-dimethoxy-biphenyl-3-carbonyl)-amino]-4-trifluoromethyl-cyclohexanecarboxylic acid] | < 0.1
COc1ccc(C(=O)NC2(C(=O)O)CCCCC2C)cc1OCCc1cccc(C)c1 (centres unmarked) [Example 32] | 1 to 30
COCCOc1ccc(C(=O)NC2(C(=O)O)CCCCCC2)cc1OCCc1cccc(C)c1 [Example 116, 1-[4-(2-Methoxy-ethoxy)-3-(2-m-tolyl-ethoxy)-benzoylamino]-cycloheptanecarboxylic acid] | 1 to 30
COc1ccc(C(=O)NC2(C(=O)O)CCCCCC2)cc1CCCc1cccc(C)c1 [Example 72, 1-[4-Methoxy-3-(3-m-tolyl-propyl)-benzoylamino]-cycloheptanecarboxylic acid] | < 0.1
COc1ncc(C(=O)NC2(C(=O)O)CCCCCC2)cc1-c1cc(F)c(F)c(F)c1 [Example 98] | < 0.1
COc1ccc(C(=O)NC2(C(=O)O)CC(C)C2)cc1OCCc1cccc(C)c1 (centres unmarked) [Example 76, 1-[4-Methoxy-3-(2-m-tolyl-ethoxy)-benzoylamino]-3-methyl-cyclobutanecarboxylic acid] | < 0.1
COc1ccc(C(=O)NC2(C(=O)O)CCCC(=O)CC2)cc1OCCc1cccc(C)c1 (centres unmarked) [Example 52, 1-[4-Methoxy-3-(2-m-tolyl-ethoxy)-benzoylamino]-4-oxo-cycloheptanecarboxylic acid] | 1 to 30
COc1ccc(C(=O)NC2(C(=O)O)CCCCCC2)cc1OCCc1c(C)n[nH]c1C [Example 4] | 0.1 to 1
Cc1cccc(CCOc2cc(C(=O)N[C@]3(C(=O)O)CC[C@H](C(F)(F)F)CC3)cc3c2OC(F)(F)O3)c1 [Example 454, Cis-1-{[2,2-Difluoro-7-(2-m-tolyl-ethoxy)-benzo[1,3]dioxole-5-carbonyl]-amino}-4-trifluoromethyl-cyclohexanecarboxylic acid] | < 0.1
C=CC1CC1(NC(=O)c1ccc(OC)c(OCCc2cccc(C)c2)c1)C(=O)O (centres unmarked) [Example 40] | 0.1 to 1
COc1ccc(C(=O)NC2(C(=O)O)CCCCCC2)cc1-c1cccc(C2COC2)c1 [Example 457, 1-[(6-Methoxy-3′-oxetan-3-yl-biphenyl-3-carbonyl)-amino]-cycloheptanecarboxylic acid] | 0.1 to 1
COc1ncc(C(=O)N[C@]2(C(=O)O)CC[C@H](C)CC2)cc1OCCc1cccc(CCO)c1 [Example 91, cis-1-[(5-{2-[3-(2-Hydroxy-ethyl)-phenyl]-ethoxy}-6-methoxy-pyridine-3-carbonyl)-amino]-4-methyl-cyclohexanecarboxylic acid] | < 0.1
CC[C@H]1CC[C@](NC(=O)c2cc(F)c(OCCO)c(-c3ccc(OC)c(Cl)c3)c2)(C(=O)O)CC1 [Example 381] | < 0.1
Cc1cccc(CCOc2cc(C(=O)N[C@]3(C(=O)O)CC[C@H](C(F)(F)F)CC3)cc3c2OCO3)c1 [Example 133, cis-1-{[7-(2-m-Tolyl-ethoxy)-benzo[1,3]dioxole-5-carbonyl]-amino}-4-trifluoromethyl-cyclohexanecarboxylic acid] | < 0.1
COCCOc1ccc(C(=O)N[C@]2(C(=O)O)CC[C@@H](C)CC2)cc1OCCc1cccc(Cl)c1 [Example 114, trans-1-[3-[2-(3-Chloro-phenyl)-ethoxy]-4-(2-methoxy-ethoxy)-benzoylamino]-4-methyl-cyclohexanecarboxylic acid] | 0.1 to 1
CC[C@H]1CC[C@](NC(=O)c2cc(F)c(OC)c(-c3ccc(OC)c(Cl)c3)c2)(C(=O)O)CC1 [Example 447, Cis-1-[(3′-chloro-5-fluoro-6,4′-dimethoxy-biphenyl-3-carbonyl)-amino]-4-ethyl-cyclohexanecarboxylic acid] | < 0.1
